This note sets out measurements from patent US20080167272A1, “Thalidomide metabolites and methods of use” (Auckland Uniservices Limited, priority 2005, published 2008).

Data set [1] has as its system TNF. The data set is described as follows: Modulation of TNF production in Colon 38 tumour-bearing mice (serum and tumour, ELISA). Type of data set: in vivo. The note with it: 3 h; for effect on DMXAA-induced tumour TNF level: FIG. 3B. The procedure:
Mice with Colon 38 tumours, approximately 5-7 mm in diameter, were divided into groups of 5. One group was untreated. Other groups were treated with DMXAA (25 mg/kg) alone; DMXAA (25 mg/kg)+thalidomide (100 mg/kg), DMXAA (25 mg/kg)+PG (100 mg/kg), DMXAA (25 mg/kg)+PiG (100 mg/kg), DMXAA (25 mg/kg)+CG (100 mg/kg), DMXAA (25 mg/kg)+thalidomide (20 mg/kg), DMXAA (25 mg/kg)+CG (20 mg/kg), and thalidomide, PG, PiG or CG only at 100 and 200 mg/kg. Three hours after treatment, mice were anaesthetized with halothane (NZ Pharmacology Ltd., Christchurch, New Zealand), and blood was collected from the ocular sinus and tumours were excised. Blood was coagulated overnight at 4° C., and then centrifuged for 30 min at 2,000×g and 4° C., and the serum was removed and stored at −80° C. until use. Tumour tissues were weighed and homogenized in 1.5 ml α-minimal essential medium (Gibco, Grand Island, N.Y., USA). The homogenates were centrifuged (2,000×g, 30 min, 4° C.) and supernatant was removed and re-centrifuged (14,000×g, 30 min, 4° C.). The final supernatants were removed and kept at −80° C. until use. TNF levels in serum and supernatants derived from tumour homogenates were assayed for TNF as described in section 4 (below).
TNF was assayed using a commercially available ELISA kit (OpEIA human or murine TNF kit, PharMingen, San Diego, Calif., USA), according to the manufacturer's instructions. Briefly, samples (100 μl/well) in duplicate together with a serial dilution of TNF (31.25-2000 pg/ml) for the standard curve, were added to flat-bottom 96-well plates pre-coated with immobilised monoclonal anti-TNF antibody and incubated at room temperature for 2 h. The wells were then washed, biotinylated polyclonal antibody to TNF was added, followed by peroxidase-labelled streptavidin, and incubated at room temperature for 1 h. The wells were washed again, and the substrate, tetramethylbenzidine and hydrogen peroxide was added and after 10 min the reaction was stopped with 2 N sulphuric acid. The absorbance at 450 nm was determined using a microtitre plate reader.
(An ELISA detects its analyte on a solid surface through an enzyme-linked reagent.)

Data set [2] deals with Colon 38 tumours. Briefly: Tumour growth delay, Colon 38 tumours in mice, combination with DMXAA. Type of data set: in vivo. The text has this: Mice (C57B1/6 bred at the Animal Resources Unit, University of Auckland, New Zealand) were implanted with Colon 38 tumours, obtained originally from the Mason Research Institute (Auckland, New Zewaland) by transferring 1 mm^3 pieces of the tumour into a subcutaneous opening in the left flank of anaesthetized mice. The mice with tumours were used for growth delay experiments when tumours had reached approximately 3-5 mm in diameter. Mice were divided into 10 groups, an untreated control group, a group treated intraperitoneally (i.p.) with DMXAA (5,6-dimethylxanthenone-4-acetic acid, synthesized at the Auckland Cancer Society Research Centre—ACSRC (Auckland, New Zealand) at 25 mg/kg only, and 8 groups treated with DMXAA together with the hydrolytic thalidomide metabolites PG, PiG, CG also synthesized at the ACSRC as previously described (Lu et al, 2003), or thalidomide at 100 mg/kg, or together with CG or thalidomide at 20 mg/kg or 4 mg/kg. DMXAA was dissolved in saline at 2.5 mg/ml and injected i.p. into mice in a volume of 10 μl/g body weight. Thalidomide, PG, PiG and CG were dissolved in dimethylsulphoxide at 40, 8 or 1.6 mg/ml (for dosages of 100, 20, 4 mg/kg respectively) and injected i.p. in a volume of 2.5 μl/g body weight. Tumours were measured 2-3 times weekly after treatment and tumour volumes were calculated as 0.52×a^2×b, where a and b are the minor and major axes of the tumour. The arithmetic means and standard errors were calculated for each point, counting cured animals as having zero tumour volume, and expressed as fractions of the pre-treatment volume. Growth delay was determined as the difference in the number of days required for the tumour to reach four times the pre-treatment volume.

Data set [3] deals with ECV304 cells. The data set is described as follows: MTT cytotoxicity assay. Type of data set: cell-based, human. The note with it: 18 h, 2-250/g/ml, vs untreated or DMSO-treated cultures. As to the method:
The 3-(4,5-dimethylthiazol-2-yl)-2,5-diphenyl tetrazolium bromide (MTT) assay, which measures mitochondrial metabolic activity, was used to determine cell viability (Mosmann, 1983). Cells (4×10^3/well) were cultured with various concentrations of thalidomide, CG, PG and PiG in a final volume of 100 μl M199 medium (Gibco, Grand Island, N.Y., USA) supplemented with 10% foetal bovine serum ([…] streptomycin sulphate and 100 units/ml penicillin-G (Sigma, St Louis, Calif., USA) in flat-bottomed 96-well plates at 37° C. at 5% CO2 for 18 h. At the end of the incubation period, 10 μl of MTT (Sigma, St. Louis, Mo., 5 mg/ml in PBS) was added to each well, and the cells were further incubated for 2 h. The supernatants were then removed and the formazan crystals in the cells were dissolved by the addition of 100 μl of DMSO per well, and the absorbance at 590 nm was read using a plate reader. Each concentration of drug was tested in triplicate wells, and the mean ±standard error of the mean (SEM) was calculated.
In general terms: Formazan colour is commonly taken as a measure of viable cells.

Turning to `O=C1CCC(NC(=O)c2ccccc2C(=O)O)C(=O)N1` (centres unmarked) [CG, 2-{[(2,6-Dioxo-3-piperidinyl)amino]carbonyl}benzoic acid], the “effect on DMXAA-induced tumour TNF level” value in data set [1] (20 mg/kg co-administered with DMXAA 25 mg/kg) and in data set [1] (100 mg/kg co-administered with DMXAA 25 mg/kg) was “significantly increased” throughout. The “effect on DMXAA-induced serum TNF level” value in data set [1] (100 mg/kg co-administered with DMXAA 25 mg/kg, FIG. 3A) is “decreased”. Moreover, the “potentiation of DMXAA-induced anti-tumour effects” value in data set [2] (4 mg/kg co-administered with DMXAA 25 mg/kg, FIG. 1C) is “neither CG nor thalidomide showed potentiation”. For the same compound, the “tumour volumes at 21 days after treatment compared with DMXAA alone” value was “no significant difference” in data set [2] (4 mg/kg co-administered with DMXAA 25 mg/kg, FIG. 2) and “significantly smaller tumour volumes than those treated by DMXAA alone” in data set [2] (100 mg/kg co-administered with DMXAA 25 mg/kg, FIG. 2). For the same compound, the “potentiation of DMXAA activity against Colon 38 tumours” value in data set [2] (20 mg/kg co-administered with DMXAA 25 mg/kg, FIG. 1B) is “more effective than thalidomide plus DMXAA or DMXAA alone”. Further, the “tumour volume at 21 days after treatment compared with DMXAA alone” value in data set [2] (20 mg/kg co-administered with DMXAA 25 mg/kg, FIG. 2) is reported as “significantly smaller tumour volume than those treated by DMXAA alone”. Also, the “inhibition of tumour growth compared with DMXAA alone” value in data set [2] (100 mg/kg i.p. co-administered with DMXAA 25 mg/kg, FIG. 1A) is “greater inhibition of tumour growth than that of DMXAA alone”. For the same compound, the “tumour growth inhibition compared with thalidomide” value in data set [2] (doses at or above 20 mg/kg, combined with DMXAA, FIGS. 1 & 2) was “greater tumour growth inhibition than thalidomide”. In addition, the “toxicity (cell viability, MTT)” value in data set [3] is given as “No toxicity was observed”.
